Laboratory results from US6737383B1, “Herbicidal oxadiazolidines” (priority 1999, dated 2004).

Key:
surinam grass = experiment: Test B pre/postemergence surinam grass; format: in vivo, Brachiaria decumbens
Method in brief: (§1)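 Response is a visual 0-to-10 score relative to untreated plants, where 0 means no effect and 10 means complete control, taken twelve to sixteen days after application. Treatments went onto soil at planting and onto foliage of 1- to 4-leaf plants, using a surfactant-containing non-phytotoxic solvent.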

corn = experiment: Test B pre/postemergence corn; format: in vivo, Zea mays
Method in brief: as §1

morningglory = experiment: Test B pre/postemergence morningglory; format: in vivo, Ipomoea hederacea
Method in brief: as §1

wheat = experiment: Test B pre/postemergence wheat; format: in vivo, Triticum aestivum
Method in brief: as §1

wild oat = experiment: Test B pre/postemergence wild oat; format: in vivo, Avena fatua
Method in brief: as §1

sugar beet = experiment: Test B pre/postemergence sugar beet; format: in vivo, Beta vulgaris
Method in brief: as §1

blackgrass = experiment: Test B pre/postemergence blackgrass; format: in vivo, Alopecurus myosuroides
Method in brief: as §1

pigweed = experiment: Test B pre/postemergence pigweed; format: in vivo, Amaranthus retroflexus
Method in brief: as §1

cocklebur = experiment: Test B pre/postemergence cocklebur; format: in vivo, Xanthium strumarium
Method in brief: as §1

bedstraw = experiment: Test B pre/postemergence bedstraw; format: in vivo, Galium aparine; conditions: Preemergence
Method in brief: as §1

soybean = experiment: Test B pre/postemergence soybean; format: in vivo, Glycine max
Method in brief: as §1

crabgrass = experiment: Test B pre/postemergence crabgrass; format: in vivo, Digitaria sanguinalis
Method in brief: as §1

rape = experiment: Test B pre/postemergence rape; format: in vivo, Brassica napus
Method in brief: as §1

velvetleaf = experiment: Test B pre/postemergence velvetleaf; format: in vivo, Abutilon theophrasti
Method in brief: as §1

purple nutsedge = experiment: Test B pre/postemergence purple nutsedge; format: in vivo, Cyperus rotundus
Method in brief: as §1

giant foxtail = experiment: Test B pre/postemergence giant foxtail; format: in vivo, Setaria faberii
Method in brief: as §1

[1] = Postemergence, Rate 62 g/ha, scale of 0 to 10, 0 is no effect, 10 is complete control
[2] = Postemergence, Rate 125 g/ha, scale 0 to 10, 0 is no effect, 10 is complete control
[3] = Postemergence, Rate 500 g/ha, scale 0 to 10, 0 is no effect, 10 is complete control
[4] = Preemergence, Rate 62 g/ha, scale 0 to 10 (0 no effect, 10 complete control)
[5] = Preemergence, Rate 125 g/ha, scale 0 to 10, 0 is no effect, 10 is complete control
[6] = Preemergence, Rate 500 g/ha, scale of 0 to 10 where 0 is no effect and 10 is complete control
[7] = Rate 250 g/ha, Postemergence, scale of 0 to 10 where 0 is no effect and 10 is complete control

COCn1c(=O)on(C(=O)N(c2ccc(Cl)cc2)C(C)C)c1=O [Compound 533]
B. signalgrass plant response rating (surinam grass; [1]): 0 | B. signalgrass plant response rating (surinam grass; [2]): 0 | Plant response rating, B. signalgrass (surinam grass; [3]): 4 | B. signalgrass plant response rating (surinam grass; [4]): 2 | B. signalgrass plant response rating (surinam grass; [5]): 3 | B. signalgrass plant response rating (0 to 10 scale, 0 is no effect, 10 is complete control) (surinam grass; Preemergence, Rate 250 g/ha): 9 | B. signalgrass plant response rating (surinam grass; [6]): 9 | Corn plant response rating (corn; [1]): 0 | Corn plant response rating (corn; [2]): 0 | Plant response rating, Corn (corn; [3]): 0 | Corn plant response rating (corn; [4]): 0 | Corn plant response rating (corn; [5]): 0 | Corn plant response rating (0 to 10 scale) (corn; Preemergence, Rate 250 g/ha): 0 | Corn plant response rating (corn; [6]): 6 | Plant response rating, Corn (corn; [7]): 0 | Morningglory plant response rating (morningglory; [1]): 4 | Morningglory plant response rating (morningglory; [2]): 4 | Plant response rating, Morningglory (morningglory; [3]): 7 | Morningglory plant response rating (morningglory; [4]): 0 | Morningglory plant response rating (morningglory; [5]): 0 | Morningglory plant response rating (0 to 10 scale) (morningglory; Preemergence, Rate 250 g/ha): 0 | Morningglory plant response rating (morningglory; [6]): 0 | Plant response rating, Morningglory (morningglory; [7]): 7 | Wheat plant response rating (wheat; [1]): 0 | Wheat plant response rating (wheat; [2]): 0 | Plant response rating, Wheat (wheat; [3]): 2 | Wheat plant response rating (wheat; [4]): 0 | Wheat plant response rating (wheat; [5]): 0 | Wheat plant response rating (0 to 10 scale) (wheat; Preemergence, Rate 250 g/ha): 0 | Wheat plant response rating (wheat; [6]): 0 | Wild oats plant response rating (wild oat; [1]): 0 | Wild oats plant response rating (wild oat; [2]): 0 | Plant response rating, Wild oats (wild oat; [3]): 0 | Wild oats plant response rating (wild oat; [4]): 0 | Wild oats plant response rating (wild oat; [5]): 0 | Wild oats plant response rating (0 to 10 scale) (wild oat; Preemergence, Rate 250 g/ha): 9 | Wild oats plant response rating (wild oat; [6]): 9 | Sugarbeets plant response rating (sugar beet; [1]): 0 | Sugarbeets plant response rating (sugar beet; [2]): 0 | Plant response rating, Sugarbeets (sugar beet; [3]): 4 | Sugarbeets plant response rating (sugar beet; [4]): 3 | Sugarbeets plant response rating (sugar beet; [5]): 5 | Sugarbeets plant response rating (0 to 10 scale) (sugar beet; Preemergence, Rate 250 g/ha): 7 | Sugarbeets plant response rating (sugar beet; [6]): 7 | Blackgrass plant response rating (blackgrass; [2]): 2 | Plant response rating, Blackgrass (blackgrass; [3]): 7 | Blackgrass plant response rating (blackgrass; [4]): 4 | Blackgrass plant response rating (blackgrass; [5]): 8 | Blackgrass plant response rating (0 to 10 scale) (blackgrass; Preemergence, Rate 250 g/ha): 9 | Blackgrass plant response rating (blackgrass; [6]): 9 | Redroot pigweed plant response rating (pigweed; [1]): 9 | Redroot pigweed plant response rating (pigweed; [2]): 9 | Plant response rating, Redroot pigweed (pigweed; [3]): 9 | Redroot pigweed plant response rating (pigweed; [4]): 8 | Redroot pigweed plant response rating (pigweed; [5]): 8 | Redroot pigweed plant response rating (0 to 10 scale) (pigweed; Preemergence, Rate 250 g/ha): 8 | Redroot pigweed plant response rating (pigweed; [6]): 8 | Cocklebur plant response rating (cocklebur; [1]): 2 | Cocklebur plant response rating (cocklebur; [2]): 2 | Plant response rating, Cocklebur (cocklebur; [3]): 4 | Cocklebur plant response rating (cocklebur; [4]): 0 | Cocklebur plant response rating (cocklebur; [5]): 0 | Cocklebur plant response rating (0 to 10 scale) (cocklebur; Preemergence, Rate 250 g/ha): 0 | Cocklebur plant response rating (cocklebur; [6]): 0 | Plant response rating, Cocklebur (cocklebur; [7]): 2 | Bedstraw plant response rating (bedstraw; Rate 62 g/ha, scale 0 to 10 (0 no effect, 10 complete control)): 0 | Bedstraw plant response rating (bedstraw; Rate 125 g/ha, scale 0 to 10, 0 is no effect, 10 is complete control): 0 | Bedstraw plant response rating (0 to 10 scale) (bedstraw; Rate 250 g/ha): 0 | Bedstraw plant response rating (bedstraw; Rate 500 g/ha, scale of 0 to 10 where 0 is no effect and 10 is complete control): 0 | Soybean plant response rating (soybean; [1]): 4 | Soybean plant response rating (soybean; [2]): 4 | Plant response rating, Soybean (soybean; [3]): 4 | Soybean plant response rating (soybean; [4]): 0 | Soybean plant response rating (soybean; [5]): 0 | Soybean plant response rating (0 to 10 scale) (soybean; Preemergence, Rate 250 g/ha): 0 | Soybean plant response rating (soybean; [6]): 0 | Plant response rating, Soybean (soybean; [7]): 4 | Crabgrass plant response rating (crabgrass; [1]): 3 | Crabgrass plant response rating (crabgrass; [2]): 8 | Plant response rating, Crabgrass (crabgrass; [3]): 9 | Crabgrass plant response rating (crabgrass; [4]): 9 | Crabgrass plant response rating (crabgrass; [5]): 10 | Crabgrass plant response rating (0 to 10 scale) (crabgrass; Preemergence, Rate 250 g/ha): 10 | Crabgrass plant response rating (crabgrass; [6]): 10 | Plant response rating, Crabgrass (crabgrass; [7]): 9 | Rape plant response rating (rape; [1]): 0 | Rape plant response rating (rape; [2]): 0 | Plant response rating, Rape (rape; [3]): 4 | Rape plant response rating (rape; [4]): 0 | Rape plant response rating (rape; [5]): 0 | Rape plant response rating (0 to 10 scale) (rape; Preemergence, Rate 250 g/ha): 7 | Rape plant response rating (rape; [6]): 7 | Velvetleaf plant response rating (velvetleaf; [1]): 0 | Velvetleaf plant response rating (velvetleaf; [2]): 4 | Plant response rating, Velvetleaf (velvetleaf; [3]): 8 | Velvetleaf plant response rating (velvetleaf; [4]): 0 | Velvetleaf plant response rating (velvetleaf; [5]): 0 | Velvetleaf plant response rating (0 to 10 scale) (velvetleaf; Preemergence, Rate 250 g/ha): 5 | Velvetleaf plant response rating (velvetleaf; [6]): 5 | Plant response rating, Velvetleaf (velvetleaf; [7]): 4 | Nutsedge plant response rating (purple nutsedge; [1]): 0 | Nutsedge plant response rating (purple nutsedge; [2]): 0 | Plant response rating, Nutsedge (purple nutsedge; [3]): 0 | Nutsedge plant response rating (purple nutsedge; [4]): 0 | Nutsedge plant response rating (purple nutsedge; [5]): 0 | Nutsedge plant response rating (purple nutsedge; [6]): 0 | Plant response rating, Nutsedge (purple nutsedge; [7]): 0 | Giant foxtail plant response rating (giant foxtail; [1]): 8 | Giant foxtail plant response rating (giant foxtail; [2]): 8 | Plant response rating, Giant foxtail (giant foxtail; [3]): 9 | Giant foxtail plant response rating (giant foxtail; [4]): 9 | Giant foxtail plant response rating (giant foxtail; [5]): 10 | Giant foxtail plant response rating (0 to 10 scale) (giant foxtail; Preemergence, Rate 250 g/ha): 10 | Giant foxtail plant response rating (giant foxtail; [6]): 10 | Plant response rating, Giant foxtail (giant foxtail; [7]): 9
